“Also recorded” adds a separate entry of the source.
Assays:
[1] = system: FADS1 expression; assay: FADS1 expression in lymphoblasts after drug treatment (qRT-PCR); assay type: cell-based, human; settings: 24 hours; for FADS1 response to drug, D/D vs I/I haplotype homozygotes (in words): lymphoblasts, 1 μNI GW3965, 20 μM rosiglitazone
Experimental: Immortalized B-lymphocyte (lymphoblast) cell lines from Japanese HapMap participants were obtained from the Coriell Institute for Medical Research, and used within 10 passages of receipt from the repository. Cells were grown in RPMI 1640 with 2 mM L-alanyl-glutamine (Sigma) and 15% fetal bovine serum (media and serum obtained from HyClone) in a humidified environment at 37° C. with 5% CO2. All experiments were conducted on cells grown and treated in parallel in identical media and growth conditions. […] RNA was extracted using the RNeasy kit (Qiagen), and RNA quality was checked by agarose gel electrophoresis to verify RNA integrity and by 260/280 nm ratios on a NanoDrop 2000 (Thermo Scientific). cDNA was prepared using the High Capacity cDNA Reverse Transcription Kit (Applied Biosystems) according to the manufacturer's protocol.
(§1) Quantitative real-time PCR was carried out using SYBR Green Master Mix (Roche) on a LightCycler 480 instrument (Roche). PCR primers were obtained from Integrated DNA Technologies (sequences available upon request), except for 18S, which was obtained from Qiagen as a QuantiTect Primer Assay. PCR reaction efficiency was calculated from standard curves, and reactions were assessed by both melting curves and by running on agarose gels to verify reaction products and the absence of primer-dimers. Quantitative cycle (Cq) values were determined using LightCycler 480 SW1.5.0SP3 software, version 1.5.0.39 (Roche). […] Statistical significance of differences in fold changes between genotypes in response to cell treatments (normalized to vehicle treatment for each genotype) was assessed by the Mann-Whitney U test. Bootstrapping and randomization techniques were used in REST 2009 software (Qiagen) to calculate significance of fold changes normalizing both genotypes to basal expression in I/I allele homozygotes.
Follow-up experiments were carried out in Japanese HapMap lymphoblast cell lines homozygous for the D/D haplotype associated with FADS1 expression, or homozygous for the I/I haplotype. All available D/D haplotype homozygote cell lines were used (n=5), as well as randomly chosen I/I allele homozygote cell lines (n=11).
To investigate the possibility of a causal genetic variation in a transcription factor binding site, cells were treated with drugs acting directly or indirectly on PPARγ or SREBP-1c.

[2] = system: FADS2 expression; assay: FADS2 expression in lymphoblasts after drug treatment (qRT-PCR); assay type: cell-based, human; settings: 24 hours
Experimental: Immortalized B-lymphocyte (lymphoblast) cell lines from Japanese HapMap participants were obtained from the Coriell Institute for Medical Research, and used within 10 passages of receipt from the repository. Cells were grown in RPMI 1640 with 2 mM L-alanyl-glutamine (Sigma) and 15% fetal bovine serum (media and serum obtained from HyClone) in a humidified environment at 37° C. with 5% CO2. All experiments were conducted on cells grown and treated in parallel in identical media and growth conditions. […]
as §1, with “Bootstrapping and randomization techniques were used in REST 2009 software (Qiagen) to calculate significance of fold changes normalizing both genotypes to basal expression in I/I allele homozygotes.” left out

[3] = 5 μNI simvastatin, normalized to vehicle

O=C(O)Cc1cccc(OCCCN(Cc2cccc(C(F)(F)F)c2Cl)CC(c2ccccc2)c2ccccc2)c1 [GW3965]
upregulation (induction) of FADS1 higher for the D/D haplotype than for I/I ([1]; D/D vs I/I haplotype homozygote lymphoblasts, 5 μNI simvastatin, 1 μNI GW3965): 25%
final FADS1 expression after treatment, difference between genotypes (in words) ([1]; D/D vs I/I lymphoblasts, normalized to basal I/I expression): did not significantly differ; also recorded: no longer significantly different
upregulation of FADS1 ([1]; I/I haplotype homozygote lymphoblasts, 5 μNI simvastatin, 1 μNI GW3965, normalized to vehicle): about two
FADS1 response to drug, D/D vs I/I haplotype homozygotes (in words) [1, 3]: significantly greater fold increase
FADS2 expression increase in D/D haplotype homozygotes compared with I/I (in words) ([2]; lymphoblasts, normalized to vehicle): even more

CN(CCOc1ccc(CC2SC(=O)NC2=O)cc1)c1ccccn1 (stereo not shown) [rosiglitazone]
FADS1 response to drug, D/D vs I/I haplotype homozygotes (in words) [1, 3]: no response
FADS2 response to treatment (in words) ([2]; I/I and D/D lymphoblasts, 20 μM rosiglitazone): no response

— US9914969B2, “Fads regulation” (CORNELL UNIVERSITY, priority 2012, dated 2018)
